Test results reported in patent publication EP0472573B1, “HERBICIDE RESISTANT MAIZE” (ZENECA LIMITED, priority 1989, dated 1990).

Each compound was assayed against ALS (acetolactate synthase), Wild type (assay: ALS enzyme assay, wild-type control). Conditions: herbicide concentration giving 50% inhibition of ALS activity, read-out: ID50% (the source's name).
Format: biochemical, Zea mays
Method: (§1) Seeds of generation M₁BC₁ M₁BC₂ of the nine mutants were sprayed pre-emergence with the herbicide imazethapyr (PURSUIT) (Trade Mark) at a rate of 250 g/ha and grown in a growth chamber (16 hour day, 27°C; 8 hour night, 17°C). Plants were harvested after 11 days.
(§2) Four grams of leaf material were harvested from just above the first leaf axis and ground in a mortar and pestle in 20ml of a solution containing 40mM Tricine (Trade Mark), 10mM EDTA, 5mM pyruvate, 80 »M flavin adenine dinucleotide (FAD), 1mM dithiothreitol (DTT), pH 8, plus 0.8g Polyclar AT. The homogenate was pressed through four layers of muslin and centrifuged at 30,000g for 20 minutes.
(§3) The supernatant was brought to 65% saturation with ammonium sulphate, left to precipitate for 30 minutes and then centrifuged at 30.000g for 20 minutes. The pellet was resuspended in 2.5ml of 40mM Tricine, 10mM EDTA, 5mM pyruvate, 80»M FAD, 25% (v/v) glycerol, 1mM DTT, pH 8, and desalted into 3.5ml of 40mM Tricine, 10mM EDTA, 25% (v/v) glycerol, 1mM DTT, pH 8.
(§4) One hundred microlitres of the enzyme extract was used for each assay. Final reagent concentrations were: 120mM Tricine, 50mM pyruvate, 10mM MgCl₂, […], 93»M thiamine pyrophosphate (TPP), pH 8, in the presence or absence of a herbicide of interest, in a volume of 750 »l. Incubations were carried out at 37°C for 30 minutes. Reactions were stopped with 250»l of 1.84M sulphuric acid, and decarboxylation of the acetolactate carried out at 37°C for 75 minutes, or at 60°C for 30 minutes. Assay blanks had sulphuric acid added prior to the enzyme extract. To the samples and blanks 650»l of α-naphthol in 2.73M NaOH/0.16%(w/v) creatine were added followed by incubation at 37°C for 30 minutes. After centrifugation at 30,000g the optical density of the supernatant was read at 540nm.
(§5) The assay procedure described was carried out on ALS enzyme extracted from each of the nine mutants for the following herbicides: imazethapyr (PURSUIT) imazapyr (ARSENAL) imazaquin (SCEPTER) chlorsulfuron (GLEAN) chlorimuron (CLASSIC) […] (HARMONY) The enzyme activity graphs are given as Figures 3 to 8. In addition, homozygous lines of mutants 1 and 2 which were selected from generation M₁BC₁S₂, were also tested against the same group of herbicides and against representatives of the triazolopyrimidines and phenoxypyrimidines. The chemical structures of these herbicides are shown in Figure 2 of the accompanying drawings.
(§6) From the enzyme assay data it is possible to derive, as a measure of the degree of inhibition the factor ID50% for each mutant and for each herbicide. This factor is indicative of the herbicide concentration which gives 50% inhibition of the ALS activity in comparison with the wild-type control. It is also possible to derive the fold increase in resistance.

SMILES | IC50 [µM]
CC(C)C1(C)N=C(c2nc3ccccc3cc2C(=O)O)NC1=O (centres unmarked) [Imazaquin, imazaquin] | 0.6
CCc1cnc(C2=NC(=O)C(C)(C(C)C)N2)c(C(=O)O)c1 (centres unmarked) [Imazethapyr, 5-ethyl-2-(5-iso-propyl-5-methyl-4-oxo-2-imidazolin-2-yl) nicotinic acid] | 1.5

Same assay, conditions: read-out: ID50% (the source's name)

SMILES | IC50 [µM]
COc1cc(Cl)nc(NC(=O)NS(=O)(=O)c2ccccc2C(=O)O)n1 [Chlorimuron, chlorimuron] | 0.0037
COc1nc(C)nc(NC(=O)NS(=O)(=O)c2ccccc2Cl)n1 [Chlorsulfuron, chlorsulfuron] | 0.0185

The compounds below were run against ALS enzyme extracted from Mutant 8 (heterozygous) (assay: ALS enzyme assay, heterozygous Mutant 8). Conditions: ALS of heterozygous Mutant 8; read-out: ID50% (the source's name).
Format: biochemical, Zea mays
Method: as §1, §2, §3, §4, §5, §6

SMILES | IC50 [µM]
COc1cc(Cl)nc(NC(=O)NS(=O)(=O)c2ccccc2C(=O)O)n1 [Chlorimuron, chlorimuron] | 0.01
COc1nc(C)nc(NC(=O)NS(=O)(=O)c2ccccc2Cl)n1 [Chlorsulfuron, chlorsulfuron] | 0.075
CC(C)C1(C)N=C(c2nc3ccccc3cc2C(=O)O)NC1=O (centres unmarked) [Imazaquin, imazaquin] | 150
CCc1cnc(C2=NC(=O)C(C)(C(C)C)N2)c(C(=O)O)c1 (centres unmarked) [Imazethapyr, 5-ethyl-2-(5-iso-propyl-5-methyl-4-oxo-2-imidazolin-2-yl) nicotinic acid] | > 1000

Same assay, conditions: Mutant 8; groups Strong, Intermediate, Weak, Zero

SMILES | resistance group, Enzyme Assay
COc1cc(Cl)nc(NC(=O)NS(=O)(=O)c2ccccc2C(=O)O)n1 [Chlorimuron, chlorimuron] | Zero
COc1nc(C)nc(NC(=O)NS(=O)(=O)c2ccccc2Cl)n1 [Chlorsulfuron, chlorsulfuron] | Weak
CC(C)C1(C)N=C(c2nc3ccccc3cc2C(=O)O)NC1=O (centres unmarked) [Imazaquin, imazaquin] | Strong
CCc1cnc(C2=NC(=O)C(C)(C(C)C)N2)c(C(=O)O)c1 (centres unmarked) [Imazethapyr, 5-ethyl-2-(5-iso-propyl-5-methyl-4-oxo-2-imidazolin-2-yl) nicotinic acid] | Strong

Same assay, conditions: fold increase in resistance vs wild type, heterozygous Mutant 8; 30 min

SMILES | Fold Increase
COc1cc(Cl)nc(NC(=O)NS(=O)(=O)c2ccccc2C(=O)O)n1 [Chlorimuron, chlorimuron] | 3
COc1nc(C)nc(NC(=O)NS(=O)(=O)c2ccccc2Cl)n1 [Chlorsulfuron, chlorsulfuron] | 4
CC(C)C1(C)N=C(c2nc3ccccc3cc2C(=O)O)NC1=O (centres unmarked) [Imazaquin, imazaquin] | 250
CCc1cnc(C2=NC(=O)C(C)(C(C)C)N2)c(C(=O)O)c1 (centres unmarked) [Imazethapyr, 5-ethyl-2-(5-iso-propyl-5-methyl-4-oxo-2-imidazolin-2-yl) nicotinic acid] | >660

What follows are compounds tested against ALS extracted from leaves of MUTANT 2 (homozygous) (assay: ALS enzyme assay, homozygous Mutant 2). Conditions: ALS of homozygous Mutant 2; read-out: ID50% Mutant.
Format: biochemical, Zea mays
Method: as §2, §3, §4, §5, §6

SMILES | IC50 [µM]
COc1cc(Cl)nc(NC(=O)NS(=O)(=O)c2ccccc2C(=O)O)n1 [Chlorimuron, chlorimuron] | 0.02
COc1nc(C)nc(NC(=O)NS(=O)(=O)c2ccccc2Cl)n1 [Chlorsulfuron, chlorsulfuron] | 0.04
CC(C)C1(C)N=C(c2nc3ccccc3cc2C(=O)O)NC1=O (centres unmarked) [Imazaquin, imazaquin] | 40
CCc1cnc(C2=NC(=O)C(C)(C(C)C)N2)c(C(=O)O)c1 (centres unmarked) [Imazethapyr, 5-ethyl-2-(5-iso-propyl-5-methyl-4-oxo-2-imidazolin-2-yl) nicotinic acid] | 400

Same assay, conditions: fold increase in resistance vs wild type, homozygous Mutant 2; 30 min

SMILES | Fold Increase
COc1cc(Cl)nc(NC(=O)NS(=O)(=O)c2ccccc2C(=O)O)n1 [Chlorimuron, chlorimuron] | 5.4
COc1nc(C)nc(NC(=O)NS(=O)(=O)c2ccccc2Cl)n1 [Chlorsulfuron, chlorsulfuron] | 2.2
CC(C)C1(C)N=C(c2nc3ccccc3cc2C(=O)O)NC1=O (centres unmarked) [Imazaquin, imazaquin] | 66
CCc1cnc(C2=NC(=O)C(C)(C(C)C)N2)c(C(=O)O)c1 (centres unmarked) [Imazethapyr, 5-ethyl-2-(5-iso-propyl-5-methyl-4-oxo-2-imidazolin-2-yl) nicotinic acid] | 267

The compounds below were run against ALS extracted from leaves of MUTANT 1 (homozygous) (assay: ALS enzyme assay, homozygous Mutant 1). Conditions: ALS of homozygous Mutant 1; read-out: ID50% Mutant.
Format: biochemical, Zea mays
Method: as §2, §3, §4, §5, §6

SMILES | IC50 [µM]
COc1cc(Cl)nc(NC(=O)NS(=O)(=O)c2ccccc2C(=O)O)n1 [Chlorimuron, chlorimuron] | 0.01
COc1nc(C)nc(NC(=O)NS(=O)(=O)c2ccccc2Cl)n1 [Chlorsulfuron, chlorsulfuron] | 0.06
CC(C)C1(C)N=C(c2nc3ccccc3cc2C(=O)O)NC1=O (centres unmarked) [Imazaquin, imazaquin] | 175
CCc1cnc(C2=NC(=O)C(C)(C(C)C)N2)c(C(=O)O)c1 (centres unmarked) [Imazethapyr, 5-ethyl-2-(5-iso-propyl-5-methyl-4-oxo-2-imidazolin-2-yl) nicotinic acid] | 750

Same assay, conditions: fold increase in resistance vs wild type, homozygous Mutant 1; 30 min

SMILES | Fold Increase
COc1cc(Cl)nc(NC(=O)NS(=O)(=O)c2ccccc2C(=O)O)n1 [Chlorimuron, chlorimuron] | 2.7
COc1nc(C)nc(NC(=O)NS(=O)(=O)c2ccccc2Cl)n1 [Chlorsulfuron, chlorsulfuron] | 3.2
CC(C)C1(C)N=C(c2nc3ccccc3cc2C(=O)O)NC1=O (centres unmarked) [Imazaquin, imazaquin] | 292
CCc1cnc(C2=NC(=O)C(C)(C(C)C)N2)c(C(=O)O)c1 (centres unmarked) [Imazethapyr, 5-ethyl-2-(5-iso-propyl-5-methyl-4-oxo-2-imidazolin-2-yl) nicotinic acid] | 500

These compounds were tested on Mutant 3 plants (assay: Cross-resistance testing (glasshouse dose response), Mutant 3). Conditions: pre-emergence spray, assessed after four weeks growth.
Format: in vivo, Zea mays
Source text: (§7) The seeds used in this screen were populations of mixed tolerant and sensitive seed, segregating 1:1, derived from each of the heterogygous, tolerant mutants crossed with homozygous, sensitive UE95. All of the tolerant progeny are heterozygous for tolerance. Each of the mutants identified above were used except mutant 4. The controls were seed of self-pollinated UE95 which was pollinated in the same year as the tolerant lines.
(§8) One litre of compost was placed in each seed tray of dimensions 19cm x 11cm x 5cm deep and firmed down flat. Two furrows 1 cm deep were drawn in the surface of the compost in each tray and six seeds were sown in each furrow (total twelve seeds per tray). Some trays were sown with 24 seeds, in which case three furrows were made and 8 seeds sown per furrow.
(§9) In each test each tray contained either the seed of one mutant or of the UE95 control for each herbicide application rate and for the untreated control.
(§10) Five different types of ALS-inhibitor herbicides were tested on the mutants plus imazethapyr (PURSUIT) as a comparison. Four rates of each were applied; approximately 0.1x, 0.5x, 1x and 4x the estimated field rates for each herbicide. The rates are the same for mutant 3 to 10 but higher rates for chlorimuron (CLASSIC) and lower rates for chlorsulfuron (GLEAN) were applied to mutants 1 and 2.
(§11) The rates of application used in the screening tests were as follows: chlorimuron (CLASSIC) 4,20,40,160 g/Ha (mutants 1 and 2); and, 8,40,80,320 g/Ha (mutants 3 to 10); chlorsulfuron (GLEAN) 5,25,50,200 g/Ha (mutants 1 and 2); and, 1,5,10,40 g/Ha (mutants 3 to 10); imazaquin (SCEPTER) 30,150,300,1200 g/Ha; triazolopyrimidine 5,25,50,200 g/Ha; phenoxypyrimidine 10,50,100,400 g/Ha; and, imazethapyr (PURSUIT) 30,150,300,1200 g/Ha The triazolopyrimidine and phenoxypyrimidine were formulated in an adjuvant wetting agent known as JF5969 and diluted with water to make a final concentration of 10% JF5969. The remaining compounds were diluted with water only.
(§12) The spray jet and parameters were as decribed above under "SCREENING". After spraying, the seeds were covered with 0.5 litre of compost and firmed down flat (2.5cm covering) and grown under the conditions described under "SCREENING" above.
(§13) Visual assessments were made of the plants after four weeks growth. Each plant was scored on a scale of zero to 5 and the height measured from soil surface to the tallest leaf tip. The scoring scale was as follows: 0 - 0 to 10% damage (little or no herbicidal effect) 1 - 11 to 25% damage 2 - 26 to 50% damage 3 - 51 to […] 4 - 81 to 95% damage 5 - 96 to 100% damage (complete death of the plant) In carrying out these assessments, plants which were obviously of the sensitive phenotype were ignored (approximately 50% of the plants). […]

SMILES | resistance group, Dose Response
COc1cc(Cl)nc(NC(=O)NS(=O)(=O)c2ccccc2C(=O)O)n1 [Chlorimuron, chlorimuron] | Weak
COc1nc(C)nc(NC(=O)NS(=O)(=O)c2ccccc2Cl)n1 [Chlorsulfuron, chlorsulfuron] | Intermediate
CC(C)C1(C)N=C(c2nc3ccccc3cc2C(=O)O)NC1=O (centres unmarked) [Imazaquin, imazaquin] | Weak
CCc1cnc(C2=NC(=O)C(C)(C(C)C)N2)c(C(=O)O)c1 (centres unmarked) [Imazethapyr, 5-ethyl-2-(5-iso-propyl-5-methyl-4-oxo-2-imidazolin-2-yl) nicotinic acid] | Weak

These compounds were tested on Mutant 10 plants (assay: Cross-resistance testing (glasshouse dose response), Mutant 10). Conditions: pre-emergence spray, assessed after four weeks growth.
Format: in vivo, Zea mays
Source text: as §7, §8, §9, §10, §11, §12, §13

SMILES | resistance group, Dose Response
COc1cc(Cl)nc(NC(=O)NS(=O)(=O)c2ccccc2C(=O)O)n1 [Chlorimuron, chlorimuron] | Weak
COc1nc(C)nc(NC(=O)NS(=O)(=O)c2ccccc2Cl)n1 [Chlorsulfuron, chlorsulfuron] | Weak and Zero
CC(C)C1(C)N=C(c2nc3ccccc3cc2C(=O)O)NC1=O (centres unmarked) [Imazaquin, imazaquin] | Weak
CCc1cnc(C2=NC(=O)C(C)(C(C)C)N2)c(C(=O)O)c1 (centres unmarked) [Imazethapyr, 5-ethyl-2-(5-iso-propyl-5-methyl-4-oxo-2-imidazolin-2-yl) nicotinic acid] | Intermediate

What follows are compounds tested on Mutant 2 plants (assay: Cross-resistance testing (glasshouse dose response), Mutant 2). Conditions: pre-emergence spray, assessed after four weeks growth.
Format: in vivo, Zea mays
Source text: as §7, §8, §9, §10, §11, §12, §13

SMILES | resistance group, Dose Response
COc1cc(Cl)nc(NC(=O)NS(=O)(=O)c2ccccc2C(=O)O)n1 [Chlorimuron, chlorimuron] | Zero
COc1nc(C)nc(NC(=O)NS(=O)(=O)c2ccccc2Cl)n1 [Chlorsulfuron, chlorsulfuron] | Zero
CC(C)C1(C)N=C(c2nc3ccccc3cc2C(=O)O)NC1=O (centres unmarked) [Imazaquin, imazaquin] | Strong
CCc1cnc(C2=NC(=O)C(C)(C(C)C)N2)c(C(=O)O)c1 (centres unmarked) [Imazethapyr, 5-ethyl-2-(5-iso-propyl-5-methyl-4-oxo-2-imidazolin-2-yl) nicotinic acid] | Intermediate
